Source: PubChem BioAssay (NCI)
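Method: 48-hour compound exposure of cells in 96-well plates, five concentrations, linear interpolation of endpoints. TGI is the concentration that stops growth completely.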

What was measured:
Test in all cases: DTP human tumour cell line panel, 48 h
OVCAR-5 ovarian = tested on: OVCAR-5 ovarian
EKVX NSCLC = tested on: EKVX NSCLC
MOLT-4 leukemia = tested on: MOLT-4 leukemia
SNB-75 CNS = tested on: SNB-75 CNS
SK-MEL-2 melanoma = tested on: SK-MEL-2 melanoma
SF-295 CNS = tested on: SF-295 CNS
IGROV1 ovarian = tested on: IGROV1 ovarian
UACC-257 melanoma = tested on: UACC-257 melanoma
SN12C renal = tested on: SN12C renal
CAKI-1 renal = tested on: CAKI-1 renal
M19-MEL melanoma = tested on: M19-MEL melanoma
SK-MEL-5 melanoma = tested on: SK-MEL-5 melanoma
UACC-62 melanoma = tested on: UACC-62 melanoma
NCI-H522 lung = tested on: NCI-H522 lung
CCRF-CEM leukemia = tested on: CCRF-CEM leukemia
786-0 renal = tested on: 786-0 renal
RXF 393 renal = tested on: RXF 393 renal
XF 498 CNS = tested on: XF 498 CNS
KM12 colon = tested on: KM12 colon
UO-31 renal = tested on: UO-31 renal
LXFL 529 NSCLC = tested on: LXFL 529 NSCLC
SF-268 CNS = tested on: SF-268 CNS
A549 NSCLC = tested on: A549 NSCLC
NCI-H23 lung = tested on: NCI-H23 lung
HL-60(TB) leukemia = tested on: HL-60(TB) leukemia
COLO 205 colon = tested on: COLO 205 colon
HCC-2998 colon = tested on: HCC-2998 colon
SW-620 colon = tested on: SW-620 colon
NCI-H460 lung = tested on: NCI-H460 lung
U251 CNS = tested on: U251 CNS
OVCAR-4 ovarian = tested on: OVCAR-4 ovarian
DLD-1 colon = tested on: DLD-1 colon
SF-539 CNS = tested on: SF-539 CNS
OVCAR-8 ovarian = tested on: OVCAR-8 ovarian
HCT-15 colon = tested on: HCT-15 colon
SK-OV-3 ovarian = tested on: SK-OV-3 ovarian
M14 melanoma = tested on: M14 melanoma
ACHN renal = tested on: ACHN renal
HT29 colon = tested on: HT29 colon
HOP-92 NSCLC = tested on: HOP-92 NSCLC
SK-MEL-28 melanoma = tested on: SK-MEL-28 melanoma
MALME-3M melanoma = tested on: MALME-3M melanoma
OVCAR-3 ovarian = tested on: OVCAR-3 ovarian
DMS 273 small cell lung = tested on: DMS 273 small cell lung
RPMI-8226 leukemia = tested on: RPMI-8226 leukemia
SNB-19 CNS = tested on: SNB-19 CNS
KM20L2 colon = tested on: KM20L2 colon
A498 renal = tested on: A498 renal
K-562 leukemia = tested on: K-562 leukemia
HOP-18 NSCLC = tested on: HOP-18 NSCLC
TK-10 renal = tested on: TK-10 renal
LOX IMVI melanoma = tested on: LOX IMVI melanoma
SR leukemia = tested on: SR leukemia
DU-145 prostate = tested on: DU-145 prostate
NCI/ADR-RES ovarian = tested on: NCI/ADR-RES ovarian
DMS 114 small cell lung = tested on: DMS 114 small cell lung
MCF7 breast = tested on: MCF7 breast
SNB-78 CNS = tested on: SNB-78 CNS
NCI-H226 lung = tested on: NCI-H226 lung
T-47D breast = tested on: T-47D breast
MDA-N = tested on: MDA-N
MDA-MB-231 breast = tested on: MDA-MB-231 breast
HS 578T breast = tested on: HS 578T breast
HOP-62 NSCLC = tested on: HOP-62 NSCLC
HCT-116 colon = tested on: HCT-116 colon
BT-549 breast = tested on: BT-549 breast
MDA-MB-435 = tested on: MDA-MB-435
PC-3 prostate = tested on: PC-3 prostate

**Q.** Which TGI (OVCAR-5 ovarian) does the source give for `C[C@H](NS(=O)(=O)c1ccc(NC(=O)c2ccccc2)cc1)C(=O)O` here?
**A.** > 100 µM

**Q.** What about the TGI (EKVX NSCLC) of the same compound?
**A.** > 100 µM

**Q.** And the TGI (MOLT-4 leukemia)?
**A.** > 100 µM

**Q.** And the TGI (SNB-75 CNS)?
**A.** > 100 µM

**Q.** What about the TGI (SK-MEL-2 melanoma) of the same compound?
**A.** > 100 µM

**Q.** And the TGI (SF-295 CNS)?
**A.** > 100 µM

**Q.** What about the TGI (IGROV1 ovarian) of the same compound?
**A.** > 100 µM

**Q.** What about the TGI (UACC-257 melanoma) of the same compound?
**A.** > 100 µM

**Q.** What about the TGI (SN12C renal) of the same compound?
**A.** > 100 µM

**Q.** And the TGI (CAKI-1 renal)?
**A.** > 100 µM

**Q.** What about the TGI (M19-MEL melanoma) of the same compound?
**A.** > 100 µM

**Q.** And the TGI (SK-MEL-5 melanoma)?
**A.** > 100 µM

**Q.** And the TGI (UACC-62 melanoma)?
**A.** > 100 µM

**Q.** And the TGI (NCI-H522 lung)?
**A.** > 100 µM

**Q.** What about the TGI (CCRF-CEM leukemia) of the same compound?
**A.** > 100 µM

**Q.** What about the TGI (786-0 renal) of the same compound?
**A.** > 100 µM

**Q.** What about the TGI (RXF 393 renal) of the same compound?
**A.** > 100 µM

**Q.** What about the TGI (XF 498 CNS) of the same compound?
**A.** > 100 µM

**Q.** What about the TGI (KM12 colon) of the same compound?
**A.** > 100 µM

**Q.** What about the TGI (UO-31 renal) of the same compound?
**A.** > 100 µM

**Q.** And the TGI (LXFL 529 NSCLC)?
**A.** > 100 µM

**Q.** What about the TGI (SF-268 CNS) of the same compound?
**A.** > 100 µM

**Q.** And the TGI (A549 NSCLC)?
**A.** > 100 µM

**Q.** What about the TGI (NCI-H23 lung) of the same compound?
**A.** > 100 µM

**Q.** What about the TGI (HL-60(TB) leukemia) of the same compound?
**A.** > 100 µM

**Q.** What about the TGI (COLO 205 colon) of the same compound?
**A.** > 100 µM

**Q.** And the TGI (HCC-2998 colon)?
**A.** > 100 µM

**Q.** What about the TGI (SW-620 colon) of the same compound?
**A.** > 100 µM

**Q.** What about the TGI (NCI-H460 lung) of the same compound?
**A.** > 100 µM

**Q.** And the TGI (U251 CNS)?
**A.** > 100 µM

**Q.** What about the TGI (OVCAR-4 ovarian) of the same compound?
**A.** > 100 µM

**Q.** And the TGI (DLD-1 colon)?
**A.** > 100 µM

**Q.** What about the TGI (SF-539 CNS) of the same compound?
**A.** > 100 µM

**Q.** What about the TGI (OVCAR-8 ovarian) of the same compound?
**A.** > 100 µM

**Q.** And the TGI (HCT-15 colon)?
**A.** > 100 µM

**Q.** What about the TGI (SK-OV-3 ovarian) of the same compound?
**A.** > 100 µM

**Q.** What about the TGI (M14 melanoma) of the same compound?
**A.** > 100 µM

**Q.** And the TGI (ACHN renal)?
**A.** > 100 µM

**Q.** What about the TGI (HT29 colon) of the same compound?
**A.** > 100 µM

**Q.** And the TGI (HOP-92 NSCLC)?
**A.** > 100 µM

**Q.** And the TGI (SK-MEL-28 melanoma)?
**A.** > 100 µM

**Q.** And the TGI (MALME-3M melanoma)?
**A.** > 100 µM

**Q.** What about the TGI (OVCAR-3 ovarian) of the same compound?
**A.** > 100 µM

**Q.** What about the TGI (DMS 273 small cell lung) of the same compound?
**A.** > 100 µM

**Q.** What about the TGI (RPMI-8226 leukemia) of the same compound?
**A.** > 100 µM

**Q.** And the TGI (SNB-19 CNS)?
**A.** > 100 µM

**Q.** And the TGI (KM20L2 colon)?
**A.** > 100 µM

**Q.** What about the TGI (A498 renal) of the same compound?
**A.** > 100 µM

**Q.** And the TGI (K-562 leukemia)?
**A.** > 100 µM

**Q.** And the TGI (HOP-18 NSCLC)?
**A.** > 100 µM

**Q.** And the TGI (TK-10 renal)?
**A.** > 100 µM

**Q.** And the TGI (LOX IMVI melanoma)?
**A.** > 100 µM

**Q.** What does the source list for `C[N+](C)(C)CC1CCc2ccccc2C1=O` (centres undefined)?
**A.** TGI (OVCAR-5 ovarian): 29.7 µM; TGI (EKVX NSCLC): 18.2 µM; TGI (SR leukemia): 9.23 µM; TGI (DU-145 prostate): 32.6 µM; TGI (MOLT-4 leukemia): 7.63 µM; TGI (SNB-75 CNS): 30.7 µM; TGI (NCI/ADR-RES ovarian): 42.1 µM; TGI (DMS 114 small cell lung): 31 µM; TGI (SK-MEL-2 melanoma): 31.2 µM; TGI (SF-295 CNS): 49.2 µM; TGI (IGROV1 ovarian): 28.7 µM; TGI (UACC-257 melanoma): 27.1 µM; TGI (SN12C renal): 16.3 µM; TGI (CAKI-1 renal): 9.31 µM; TGI (MCF7 breast): 5.62 µM; TGI (M19-MEL melanoma): 30.8 µM; TGI (SNB-78 CNS): 49.4 µM; TGI (SK-MEL-5 melanoma): 29.7 µM; TGI (NCI-H226 lung): 43.3 µM; TGI (UACC-62 melanoma): 12 µM; TGI (T-47D breast): 26.2 µM; TGI (MDA-N): 12.4 µM; TGI (NCI-H522 lung): 0.318 µM; TGI (CCRF-CEM leukemia): > 37.9 µM; TGI (786-0 renal): 19.2 µM; TGI (RXF 393 renal): 29.6 µM; TGI (XF 498 CNS): 5.56 µM; TGI (KM12 colon): 24.8 µM; TGI (MDA-MB-231 breast): 15.8 µM; TGI (UO-31 renal): 32.7 µM; TGI (LXFL 529 NSCLC): 8.54 µM; TGI (SF-268 CNS): 47.4 µM; TGI (A549 NSCLC): 52.3 µM; TGI (NCI-H23 lung): 29.2 µM; TGI (HL-60(TB) leukemia): 27.1 µM; TGI (COLO 205 colon): 19.3 µM; TGI (HCC-2998 colon): 28.8 µM; TGI (HS 578T breast): 35.4 µM; TGI (SW-620 colon): 3.34 µM; TGI (NCI-H460 lung): 36.7 µM; TGI (U251 CNS): 10.2 µM; TGI (OVCAR-4 ovarian): 9.67 µM; TGI (HOP-62 NSCLC): 49.2 µM; TGI (DLD-1 colon): 17 µM; TGI (SF-539 CNS): 29.9 µM; TGI (HCT-116 colon): 18.9 µM; TGI (OVCAR-8 ovarian): 33.5 µM; TGI (HCT-15 colon): 6.61 µM; TGI (SK-OV-3 ovarian): 32.8 µM; TGI (M14 melanoma): 17.9 µM; TGI (ACHN renal): 14.4 µM; TGI (HT29 colon): 15.2 µM; TGI (HOP-92 NSCLC): 15.9 µM; TGI (SK-MEL-28 melanoma): 16.9 µM; TGI (MALME-3M melanoma): 3.68 µM; TGI (BT-549 breast): 29.3 µM; TGI (OVCAR-3 ovarian): 11.8 µM; TGI (DMS 273 small cell lung): 15.1 µM; TGI (MDA-MB-435): 11 µM; TGI (RPMI-8226 leukemia): 18.4 µM; TGI (SNB-19 CNS): 28.9 µM; TGI (KM20L2 colon): 38.2 µM; TGI (PC-3 prostate): 29.1 µM; TGI (A498 renal): 50.4 µM; TGI (K-562 leukemia): 21.9 µM; TGI (TK-10 renal): 30.5 µM; TGI (LOX IMVI melanoma): 41.5 µM
